Assay results taken from US11167015B2, “Arginine and its use as a T cell modulator” (INSTITUTE FOR RESEARCH IN BIOMEDICINE, priority 2016, dated 2021).

Assays:
[1] = tested on: Naïve CD8+ OT-I T cells; assay: Tcm-like phenotype and IFN-γ of OT-I T cells after in vitro priming; type: cell-based, mouse
Source text: (§1) FIG. 7. CD8+ T cells with increased L-arginine levels display improved anti-tumor activity in vivo. (A) Survival of activated mouse CD8+OT-I T cells (4 d) after IL-2 withdrawal. Data points represent the difference between the percentage of living T cells from cultures performed in L-Arg medium or Ctrl medium; n=11. (B) CD90.1+CD45.1/2+ and CD90.1+CD45.1+ naïve CD8+ OT-I T cells were activated for 4 days in Ctrl medium or L-Arg medium, respectively. Equal numbers of the congenically marked activated OT-I cells were co-transferred into Cd3e−/− mouse and the number of living T cells was measured in pooled spleen and lymph nodes at the indicated time points; n=3 at each time point. (C) Naïve CD8+ OT-I T cells were activated with CD3+CD28 antibodies in L-Arg medium or control (Ctrl) medium. Five days after activation, the percentage of Tcm-like cells (CD44hi, CD62L+) was measured by flow cytometry; n=15. (D) Naïve OT-I CD8+ T cells were activated in L-Arg medium or Ctrl medium and IFN-γ was quantified in culture supernatants after 5 days; n=15. (E) Same as in (D) but T cells were re-activated on day 5 day with PMA/Ionomycin; n=15. (F, G) B16.OVA melanoma cells were injected into C57BL/6 mice and tumors were allowed to grow for 10 days. Naïve OT-I CD8+ T cells were activated in vitro in L-Arg medium or Ctrl medium and injected into tumor bearing mice. Tumor burden (F) and survival (G) were assessed over time. Data are representative of three independent experiments, each performed with 7-9 mice per group. (H) B16.OVA melanoma cells were injected into C57BL/6 mice and tumors were allowed to grow for 6 clays. At day 6, naïve CD8+ OT-I T cells were transferred into tumor bearing mice and at day 7 mice were immunized with OVA peptide. Starting one day before the T cell transfer, PBS or L-arginine (1.5 mg/g body weight) was orally administered daily; n=19 from three independent experiments. Bars represent the s.e.m. *p<0.05, **p<0.01, ***p<0.001, ****p<0.0001 (Student's t-test). In (G) *p<0.05 as determined by log-rank test comparison between curves. […]

[2] = tested on: mouse CD8+ OT-I T cells; assay: Survival of activated OT-I T cells in vitro after IL-2 withdrawal; type: cell-based; conditions: L-arginine-supplemented medium 4 days
Source text: as §1, with “Naïve OT-I CD8+ T cells were activated in vitro in L-Arg medium or Ctrl medium and injected into tumor bearing mice.” left out, “Data are representative of three independent experiments, each performed with 7-9 mice per group. (H) B16.OVA melanoma cells were injected into C57BL/6 mice and tumors were allowed to grow for 6 clays. At day 6, naïve CD8+ OT-I T cells were transferred into tumor bearing mice and at day 7 mice were immunized with OVA peptide. Starting one day before the T cell transfer, PBS or L-arginine (1.5 mg/g body weight) was orally administered daily; n=19 from three independent experiments. Bars represent the s.e.m. *p<0.05, **p<0.01, ***p<0.001, ****p<0.0001 (Student's t-test).” left out

[3] = tested on: human naïve CD4+ T cells; assay: Nitric oxide formation measured using DAF-FM diacetate; type: cell-based; conditions: L-arginine-supplemented medium vs normal medium
Procedure: FIG. 9. Impact of L-citrulline on metabolism, Related to FIG. 3. (A) Human naïve CD4^+ T cells were activated in normal medium or in L-Arg medium. Nitric oxide formation was measured using DAF-FM diacetate at different time points. (B) T cells were activated in control medium (Ctrl, containing 1 mM L-arginine), or in medium supplemented with 3 mM L-arginine (L-Arg) or 3 mM L-citrulline (L-Cit) and harvested at different time points. […] Shown are only metabolites with a log 2 fold change >1 and an adjusted p value of <0.05. n=6 from one donor. Log 2 fold change between 0 and >+2 for L-Orn, L-Arg and L-Cit exemplarily indicated as “high”.

[4] = tested on: activated (96 h) T cells; assay: Measurements of oxygen consumption rate (Seahorse); type: cell-based, human; conditions: medium supplemented with 3 mM L-arginine, 96 h activated
Procedure: Measurements were performed using a Seahorse XF-24 extracellular flux analyzer (Seahorse Bioscience). Naïve CD4^+ T cells were sorted and activated with plate-bound CD3 and CD28 antibodies in complete medium or medium supplemented with 3 mM L-arginine. Four days later (in the morning), cells were pooled, carefully count and plated (7×10^5 cells/well) in serum-free unbuffered RPMI-1640 medium (Sigma) onto Seahorse cell plates coated with Cell-Tak (BD Bioscience). The serum-free unbuffered medium was not supplemented with L-arginine. Oligomycin (1.4 μM, Sigma), Carbonyl cyanide-4-(trifluoromethoxy)phenylhydrazone (FCCP, 0.6 μM, Sigma) and antimycin (1.4 μM, Sigma) were injected.

[5] = tested on: natural killer cells; conditions: oral administration, healthy volunteers; cited from earlier work
[6] = tested on: activated CD8+ T cells; assay: IL-2 withdrawal assay and assessment of cell viability, CD8+ T cells; type: cell-based, human; conditions: L-arginine supplementation, 5 days after IL-2 withdrawal

N=C(N)NCCC[C@H](N)C(=O)O [L-arginine]
Tcm-like state (CD44hi, CD62L+) ([1]; five days after activation in L-Arg medium): maintained a Tcm-like state
IFN-γ production upon reactivation ([1]; re-activated on day 5 with PMA/Ionomycin): even more IFN-γ than controls
IFN-γ secretion after in vitro priming ([1]; supernatants after 5 days): secreted less IFN-γ than controls
survival capacity of OT-I T cells in vitro [2]: higher survival capacity
nitric oxide [3]: did not increase
mitochondrial spare respiratory capacity (SRC) [4]: augmented
oxygen consumption increase [4]: 1.7 fold
numbers and activity of natural killer cells [5]: enhance the numbers and activity of natural killer cells
survival of activated CD8+ T cells in the absence of exogenous cytokines [6]: significantly increased
